Experimental data published in patent publication US10570179B2, “Substituted urea depsipeptide analogs as activators of the CLPP endopeptidase” (priority 2016, dated 2020).
Converted amounts (≈) assume the structure as drawn. Where two headings read alike, the source gives them in different places. Numbered stars: 1 amine (or outer) side, 2 acyl side, 3 side chain; on linkers, the order of the positions; unused ones are H or OH. Bridge positions count the residues as written; N and C are the ends. Square brackets hold non-standard residues; d marks the D form. Peptide text beside a SMILES is read from it. * marks the point of attachment. Piperazine(2S-CO,4-Me) = CN1CCN[C@H](C(=O)O)C1; Phe(3,5-F2) = N[C@@H](Cc1cc(F)cc(F)c1)C(=O)O; NH(1-Me-indolin-5-yl) = CN1CCc2cc(N*)ccc21; Morpholine(3S-CO) = O=C(O)[C@@H]1COCCN1; Phe(3-Me) = Cc1cccc(C[C@H](N)C(=O)O)c1; NH(4-Cl-2-F-phenyl) = Fc1cc(Cl)ccc1N*; Pro(4R-Me) = C[C@H]1CN[C@H](C(=O)O)C1; Hyp = O=C(O)[C@@H]1C[C@@H](O)CN1; aThr = C[C@H](O)[C@H](N)C(=O)O; Pip = O=C(O)[C@@H]1CCCCN1; 4Abz = Nc1ccc(C(=O)O)cc1; CO = O=C([*:1])[*:2]; X2 = Fc1cc(N*)ccc1Cl

Assays:
[1] = system: E. faecails; test: Minimal inhibitory concentration, microbroth dilution; assay type: cell-based; details: Enterococcus faecalis
Summary of the method: (§1)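 Growth inhibition was scored visually after overnight aerobic culture at 37 °C in CLSI-style microdilution plates. Inocula contained about 10^5 cfu/mL, and compound concentrations descended in twofold steps from 200 μM.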

[2] = system: S. aureus ATCC 29213; test: as above; assay type: cell-based; details: Staphylococcus aureus
Summary of the method: as §1

[3] = system: S. aureus USA 300; test: as above; assay type: cell-based; details: Staphylococcus aureus
Summary of the method: as §1

[4] = system: MRSA NRS70; test: as above; assay type: cell-based; details: Staphylococcus aureus
Summary of the method: as §1

[5] = Microsomal metabolic stability; assay type: in vitro ADME, mouse
Protocol: Compounds were initially prepared by dissolving them into DMSO at a final concentration of 10 mM. NADPH regenerating solutions A and B and mouse liver microsomes (CD-1) were obtained from BD Gentest (Woburn, Mass.). Ninety-six well deep well plates were obtained from MidWest Scientific Inc (Valley Park, Mo.).
Sample preparation for microsomal stability was modified from methods of Di, L., et al., Int J Pharm. 2005 Jun. 13; 297(1-2):110-9. A set of incubation times of 0, 15, 30, 60, 120, and 240 minutes were used. Mouse liver microsomal solutions were prepared by adding 58 μL of concentrated human or mouse liver microsomes (20 mg/mL protein concentration) to 1.756 mL of 0.1 M potassium phosphate buffer (pH 7.4) and 5 μL of 0.5 M EDTA to make a 0.6381 mg/mL (protein) microsomal solution. NADPH regenerating agent contained 113 μL of NADPH A, 23 μL of NADPH B, and 315 μL of 0.1 M potassium phosphate buffer (pH 7.4). The diluted test compound solutions (2 μL) were each added directly to a 1.79 mL of liver microsomal solution. This solution was mixed and 90 μL was transferred to 6 time points plates (each in triplicate wells). For the time 0 plate, 225 μL of cold acetonitrile with internal standard ([…] warfarin) was added to each well, followed by addition of NADPH regenerating agent (22.5 μL) and no incubation. For other five time points' plate, NADPH regenerating agent (22.5 μL) was added to each well to initiate the reaction. The plates were incubated at 37° C. for the required time, followed by quenching of the reaction by adding 225 μL of cold acetonitrile with internal standard (4 μg/ml warfarin). All of the plates were sealed and mixed well at 600 rpm for 10 minutes followed by centrifugation at 4000 rpm for 20 minutes. The supernatants (120 μL) were transferred to analytical plates for analysis by LCMS. LCMS conditions were described in the materials and instrumentation section above. The metabolic stability is evaluated via the half-life from least-squares fit of the multiple time points based on first-order kinetics.

[6] = read-out: Minimal Inhibitory Concentrations (μM) E. faecails, MIC
[7] = ATCC29213, read-out: Minimal Inhibitory Concentrations (μM) S. aureus ATCC 29213, MIC
[8] = USA300, read-out: Minimal Inhibitory Concentrations (μM) S. aureus USA 300, MIC
[9] = read-out: Minimal Inhibitory Concentrations (μM) MRSA NRS70, MIC
[10] = microsomal metabolic stability half-life, mouse liver microsomes
[11] = MIC, read-out: Minimal Inhibitory Concentrations (μM) E. faecails
[12] = ATCC29213, MIC, read-out: Minimal Inhibitory Concentrations (μM) S. aureus ATCC 29213
[13] = USA300, MIC, read-out: Minimal Inhibitory Concentrations (μM) S. aureus USA 300
[14] = MIC, read-out: Minimal Inhibitory Concentrations (μM) MRSA NRS70

| SMILES | MIC [1, 6] [µM] | MIC [2, 7] [µM] | MIC [3, 8] [µM] | MIC [4, 9] [µM] | Mouse [5, 10] | MIC [1, 11] [µM] | MIC [2, 12] [µM] | MIC [3, 13] [µM] | MIC [4, 14] [µM] | Mouse ([5]; CD-1, mouse, pH 7.4) |
| --- | --- | --- | --- | --- | --- | --- | --- | --- | --- | --- |
| Cc1ccc(NC(=O)N[C@@H](Cc2cccc(C)c2)C(=O)N[C@H]2COC(=O)[C@@H]3C[C@H](C)CN3C(=O)[C@H](C)NC(=O)[C@@H]3CCCCN3C(=O)[C@@H]3CCCN3C2=O)cc1 (stereo in doubt) [Compound 43, (S)—N-((2S,6S,8AS,14AS,20S,23AS)-2,6-DIMETHYL-5,8,14,19,23-PENTAOXOOCTADECAHYDRO-1H,5H,14H,19H-PYRIDO[2,1-I]DIPYRROLO[2,1-C:2′,1′-L][1]OXA[4,7,10,13]TETRAAZACYCLOHEXADECIN-20-YL)-3-(M-TOLYL)-2-(3-(P-TOLYL)UREIDO)PROPANAMIDE] | 2.5 (≈ 1.93 µg/mL) | 2.5 (≈ 1.93 µg/mL) | 2.5 (≈ 1.93 µg/mL) | 2.5 (≈ 1.93 µg/mL) | 3.57 ± 0.3 h |  |  |  |  |  |
| C[C@@H]1C[C@H]2C(=O)O[C@@H](C)[C@H](NC(=O)[C@H](Cc3cc(F)cc(F)c3)NC(=O)Nc3ccc4c(c3)CCN4C)C(=O)N3CCC[C@H]3C(=O)N3CCOC[C@H]3C(=O)N[C@@H](C)C(=O)N2C1 [Compound 32] ({NH(1-Me-indolin-5-yl)-CO}-[Phe(3,5-F2)][aThr]P[Morpholine(3S-CO)]A[Pro(4R-Me)]; ester 2-C) | 0.039 (≈ 0.0332 µg/mL) | 0.156 (≈ 0.133 µg/mL) | 0.156 (≈ 0.133 µg/mL) | 0.078 (≈ 0.0664 µg/mL) | 0.95 ± .95 h |  |  |  |  |  |
| C[C@@H]1C[C@H]2C(=O)OC[C@H](NC(=O)[C@H](Cc3cc(F)cc(F)c3)NC(=O)Nc3ccc(Cl)cc3F)C(=O)N3CCC[C@H]3C(=O)N3CCN(C)C[C@H]3C(=O)N[C@@H](C)C(=O)N2C1 [Compound 34] ({NH(4-Cl-2-F-phenyl)-CO}-[Phe(3,5-F2)]SP[Piperazine(2S-CO,4-Me)]A[Pro(4R-Me)]; ester 2-C) |  |  |  |  |  | < 0.02 | 0.078 (≈ 0.0661 µg/mL) | 0.156 (≈ 0.132 µg/mL) | 0.078 (≈ 0.0661 µg/mL) | 1.18 ± .185 h |
| Cc1cccc(C[C@H](NC(=O)Nc2ccc(Cl)c(F)c2)C(=O)N[C@@H]2C(=O)N3CCC[C@H]3C(=O)N3CCCC[C@H]3C(=O)N[C@@H](C)C(=O)N3C[C@H](C)C[C@H]3C(=O)O[C@H]2C)c1 [Compound 35, (S)-2-(3-(4-CHLORO-3-FLUOROPHENYL)UREIDO)-3-(M-TOLYL)-N-((2R,6S,8AS,14AS,20S,21S,23AS)-2,6,21-TRIMETHYL-5,8,14,19,23-PENTAOXOOCTADECAHYDRO-1H,5H,14H,19H-PYRIDO[2,1-I]DIPYRROLO[2,1-C:2′,1′-L][1]OXA[4,7,10,13]TETRAAZACYCLOHEXADECIN-20-YL)PROPANAMIDE] ({X2-CO}-[Phe(3-Me)][aThr]P[Pip]A[Pro(4R-Me)]; ester 2-C) |  |  |  |  |  | 1.25 (≈ 1.03 µg/mL) | 0.625 (≈ 0.515 µg/mL) | 0.625 (≈ 0.515 µg/mL) | 0.313 (≈ 0.258 µg/mL) | 1.54 ± .545 h |
| CCOC(=O)c1ccc(NC(=O)N[C@@H](Cc2cccc(C)c2)C(=O)N[C@@H]2C(=O)N3C[C@H](O)C[C@H]3C(=O)N3CCCC[C@H]3C(=O)N[C@@H](C)C(=O)N3C[C@H](C)C[C@H]3C(=O)O[C@H]2C)cc1 [Compound 36, ETHYL 4-(3-((S)-1-(((2R,6S,8AS,14AS,16R,20S,21S,23AS)-16-HYDROXY-2,6,21-TRIMETHYL-5,8,14,19,23-PENTAOXOOCTADECAHYDRO-1H,5H,14H,19H-PYRIDO[2,1-I]DIPYRROLO[2,1-C:2′,1′-L][1]OXA[4,7,10,13]TETRAAZACYCLOHEXADECIN-20-YL)AMINO)-1-OXO-3-(M-TOLYL)PROPAN-2-YL)UREIDO)BENZOATE] ({OEt-4Abz-CO}-[Phe(3-Me)][aThr][Hyp][Pip]A[Pro(4R-Me)]; ester 2-C) | 1.25 (≈ 1.07 µg/mL) | 1.25 (≈ 1.07 µg/mL) | 2.5 (≈ 2.15 µg/mL) | 2.5 (≈ 2.15 µg/mL) | 11.23 ± 1.23 h |  |  |  |  |  |
